Results as given in patent US11992473B2, “Compositions and methods for diagnosis and treatment of conditions related to the quality of aging and longevity” (Epitracker, Inc., priority 2018, dated 2024).

Assays:
[1] = system: Venular endothelial cells, peripheral blood mononuclear cells; test: BioMAP Diversity PLUS SAg system (T cell stimulation, Th1 type chronic inflammation); assay type: cell-based, human
Procedure: (§1) This study examined activities of small molecules discovered in dolphin serum that had protective profiles against diseases of aging which can impact quality of life and longevity. These molecules were tested across 12 human primary cell-based systems as part of DiscoverX's BioMAP Diversity Plus program. These systems are designed to model complex human tissue and disease biology of the vasculature, skin, lung, and inflammatory tissues. Quantitative measurements of biomarker activities across this broad panel, along with comparative analysis of biological activities of known bioactive agents were used to predict and compare the efficacy and function of the four compounds. Compounds were tested at four concentrations (740 nm and 2.2, 6.7 and 20 μM).
(§2) BioMAP panels consist of human primary cell-based systems designed to model different aspects of the human body in an in vitro format. The 12 systems in the Diversity PLUS panel allow test agent characterization in an unbiased way across a broad set of systems modeling various human disease states. BioMAP systems are constructed with one or more primary cell types from healthy human donors, with stimuli (such as cytokines or growth factors) added to capture relevant signaling networks that naturally occur in human tissue or pathological conditions. Vascular biology is modeled in both a Th1 (3C system) and a Th2 (4H system) inflammatory environment, as well as in a Th1 inflammatory state specific to arterial smooth muscle cells (CASM3C system). Additional systems recapitulate aspects of the systemic immune response including monocyte-driven Th1 inflammation (LPS system) or T cell stimulation (SAg system), chronic Th1 inflammation driven by macrophage activation (lMphg system) and the T cell-dependent activation of B cells that occurs in germinal centers (BT system). The BE3C system (Th1) and the BF4T system (Th2) represent airway inflammation of the lung, while the MyoF system models myofibroblast-lung tissue remodeling. Lastly, skin biology is addressed in the KF3CT system modeling Th1 cutaneous inflammation and the HDF3CGF system modeling wound healing.
(§3) Each test agent generates a signature BioMAP profile that is created from the changes in protein biomarker readouts within individual system environments. Biomarker readouts (7-17 per system) are selected for therapeutic and biological relevance, are predictive for disease outcomes or specific drug effects and are validated using agents with known mechanism of action (MoA). Each readout is measured quantitatively by immune-based methods that detect protein (e.g., ELISA) or functional assays that measure proliferation and viability. BioMAP readouts are diverse and include cell surface receptors, cytokines, chemokines, matrix molecules and enzymes. In total, the Diversity PLUS panel contains 148 biomarker readouts that capture biological changes that occur within the physiological context of the particular BioMAP system. Specific BioMAP activities have been correlated to in vivo biology, and multiparameter BioMAP profiles have been used to distinguish compounds based on MoA and target selectivity across diverse physiological systems.
(§4) The Diversity PLUS panel allows test agent characterization in an unbiased way across a broad set of systems modeling various human disease states. These systems are designed to model complex human tissue and disease biology of the vasculature, skin, lung, and inflammatory tissues. Quantitative measurements of 148 biomarker activities across this broad panel, along with comparative analysis of biological activities from known bioactive agents, were used to predict and compare the efficacy and function of each selected compound at four concentrations (740 nm and 2.2, 6.7 and 20 μM). […]

[2] = system: Peripheral blood mononuclear cells, B cells; test: BioMAP Diversity PLUS BT system (T cell dependent B cell activation); assay type: cell-based, human; conditions: BT system
Procedure: as §1, §2
(§5) Each test agent generates a signature BioMAP profile that is created from the changes in protein biomarker readouts within individual system environments. Biomarker readouts (7-17 per system) are selected for therapeutic and biological relevance, are predictive for disease outcomes or specific drug effects and are validated using agents with known mechanism of action (MoA). Each readout is measured quantitatively by immune-based methods that detect protein (e.g., ELISA) or functional assays that measure proliferation and viability. BioMAP readouts are diverse and include cell surface receptors, cytokines, chemokines, matrix molecules and enzymes.
(§6) The Diversity PLUS panel allows test agent characterization in an unbiased way across a broad set of systems modeling various human disease states. These systems are designed to model complex human tissue and disease biology of the vasculature, skin, lung, and inflammatory tissues.
(§7) BioMAP systems are constructed with one or more primary cell types from healthy human donors, with stimuli (such as cytokines or growth factors) added to capture relevant signaling networks that naturally occur in human tissue or pathological conditions. Vascular biology is modeled in both a Th1 (3C system) and a Th2 (4H system) inflammatory environment, as well as in a Th1 inflammatory state specific to arterial smooth muscle cells (CASM3C system). Additional systems recapitulate aspects of the systemic immune response including monocyte-driven Th1 inflammation (LPS system) or T cell stimulation (SAg system), chronic Th1 inflammation driven by macrophage activation (lMphg system) and the T cell-dependent activation of B cells that occurs in germinal centers (BT system).

Dermal fibroblasts = test: BioMAP Diversity PLUS HDF3CGF system (wound healing and matrix/tissue remodeling); assay type: cell-based, human
Procedure: as §1, §2, §5, §6, §7

[3] = white powder; room temperature; cited from earlier work
[4] = system: Venular endothelial cells; test: BioMAP Diversity PLUS 4H system (Th2 type vascular inflammation); assay type: cell-based, human; conditions: 6.7 μM
Procedure: as §1, with “Compounds were tested at four concentrations (740 nm and 2.2, 6.7 and 20 μM).” left out
as §5, with “enzymes. […]” for “enzymes.”

[5] = system: Bronchial epithelial cells; test: BioMAP Diversity PLUS BE3C system (Th1 type lung inflammation); assay type: cell-based, human
Procedure: as §1, §2, §3, §4

[6] = system: Keratinocytes, dermal fibroblasts; test: BioMAP Diversity PLUS KF3CT system (Th1 type cutaneous inflammation); assay type: cell-based, human
Procedure: as §1
BioMAP panels consist of human primary cell-based systems designed to model different aspects of the human body in an in vitro format. The 12 systems in the Diversity PLUS panel allow test agent characterization in an unbiased way across a broad set of systems modeling various human disease states. […]
as §5, with “enzymes. In total, the Diversity PLUS panel contains 148 biomarker readouts that capture biological changes that occur within the physiological context of the particular BioMAP system. […]” for “enzymes.”

Lung fibroblasts = test: BioMAP Diversity PLUS MyoF system (myofibroblast differentiation and tissue remodeling); assay type: cell-based, human
Procedure: as §1, §2, §3, §4

[7] = system: Macrophages, venular endothelial cells; test: BioMAP Diversity PLUS lMphg system (Th1 type chronic inflammation, macrophage activation); assay type: cell-based, human; conditions: /Mphg system
Procedure: as §1, §2, §3, §4

In the case of `N[C@@H](CC(O)C(=O)O)C(=O)O` (some centres unmarked) [4-hydroxyglutamate], the “Significant log10 reduction compared to nontreated controls: T cell proliferation” value ([1]; SAg system, 0.7 μM) is reported as −0.08 log10, the “Significant log10 reduction compared to nontreated controls: T cell proliferation” value ([1]; SAg system, 2.2 μM) is reported as −0.09 log10 and the “Significant log10 reduction compared to nontreated controls: T cell proliferation” value ([1]; SAg system, 6.7 μM) is reported as −0.18 log10. The T cell proliferation ([1]; human cell system mimicking T-cell driven chronic inflammation and autoimmune diseases, concentrations ranging from 740 nm to 6.7 μM (FIG. 2)) was “decreased”, the “Significant log10 reduction compared to nontreated controls: Secreted interleukin 17F (IL-17F)” value ([2]; 0.7 μM) was −0.16 log10 and the decorin (Dermal fibroblasts; human cell system mimicking wound healing, remodeling, fibrosis and chronic inflammation (FIG. 7)) was “inhibitory activity”. The “stability of the pure or purified metabolite” value [3] was “stable at room temperature”.

In the case of `CCCCCCCCCCCCCCC(=O)O[C@H](CC(=O)[O-])C[N+](C)(C)C` [Pentadecanoylcarnitine (C15), pentadecanoylcarnitine], the “Significant log10 reduction compared to nontreated controls: Vascular endothelial growth factor s (VEGFR2)” value [4] is reported as −0.11 log10, the “Significant log10 reduction compared to nontreated controls: E-selectin” value ([1]; SAg system, 6.7 μM) is reported as −0.11 log10 and the “Significant log10 reduction compared to nontreated controls: T cell proliferation” value ([1]; SAg system, 6.7 μM) is reported as −0.17 log10. The “Significant log10 reduction compared to nontreated controls: Secreted interleukin 2 (IL-2)” value ([2]; 2.2 μM) was −0.11 log10, the “Significant log10 reduction compared to nontreated controls: Secreted interleukin 6 (IL-6)” value ([2]; 6.7 μM) was −0.13 log10 and the “Significant log10 reduction compared to nontreated controls: Tumor necrosis factor alpha (TNFα)” value ([2]; 6.7 μM) was −0.10 log10. For the same compound, the “Significant log10 reduction compared to nontreated controls: Interferon-inducible T cell alpha chemoattractant (I-TAC)/CXCL11” value (shortened to “Significant log10 reduction … (I-TAC)/CXCL11”) ([5]; 0.7 μM) was −0.13 log10, the “Significant log10 reduction compared to nontreated controls: Interleukin 1 alpha (IL-1α)” value (“Significant log10 reduction … (IL-1α)” below) ([5]; 0.7 μM) was −0.06 log10 and the “Significant log10 reduction … (I-TAC)/CXCL11” value ([5]; 2.2 μM) was −0.17 log10. For the same compound, the “Significant log10 reduction … (IL-1α)” value ([5]; 2.2 μM) was −0.06 log10, the “Significant log10 reduction compared to nontreated controls: Matrix metalloproteinase 1 (MMP-1)” value (shortened to “Significant log10 reduction … (MMP-1)”) ([5]; 2.2 μM) was −0.05 log10 and the “Significant log10 reduction compared to nontreated controls: Matrix metalloproteinase 9 (MMP-9)” value ([5]; 2.2 μM) was −0.08 log10. The “Significant log10 reduction compared to nontreated controls: Plasminogen activation inhibitor 1 (PAI-1)” value ([5]; 2.2 μM) was −0.08 log10, the “Significant log10 reduction compared to nontreated controls: Tissue plasminogen activator (tPA)” value ([5]; 2.2 μM) was −0.11 log10 and the “Significant log10 reduction compared to nontreated controls: Human leukocyte antigen-DR isotype (HLA-DR)” value ([5]; 6.7 μM) was −0.63 log10. The “Significant log10 reduction compared to nontreated controls: Interferon gamma-induced protein 10 (IP-10)/CXCL10” value (shortened to “Significant log10 reduction … (IP-10)/CXCL10”) ([5]; 6.7 μM) was −0.1 log10, the “Significant log10 reduction … (I-TAC)/CXCL11” value ([5]; 6.7 μM) was −0.54 log10 and the “Significant log10 reduction … (IL-1α)” value ([5]; 6.7 μM) was −0.19 log10. The “Significant log10 reduction compared to nontreated controls: Interleukin 8 (IL-8)/CXCL8” value ([5]; 6.7 μM) was −0.21 log10, the “Significant log10 reduction … (MMP-1)” value ([5]; 6.7 μM) was −0.27 log10 and the “Significant log10 reduction compared to nontreated controls: Matrix metalloproteinase 9 (MMP-9)” value ([5]; 6.7 μM) was −0.34 log10. The “Significant log10 reduction compared to nontreated controls: Monokine induced by gamma interferon (MIG)/CXCL9” value ([5]; 6.7 μM) was −0.60 log10, the “Significant log10 reduction compared to nontreated controls: Plasminogen activation inhibitor 1 (PAI-1)” value ([5]; 6.7 μM) was −0.24 log10 and the “Significant log10 reduction compared to nontreated controls: Tissue plasminogen activator (tPA)” value ([5]; 6.7 μM) was −0.43 log10. The “Significant log10 reduction … (MMP-1)” value (Dermal fibroblasts; HDF3CGF system, 6.7 μM) was −0.12 log10, the “Significant log10 reduction … (IP-10)/CXCL10” value ([6]; 0.7 μM) was −0.14 log10 and the “Significant log10 reduction … (IP-10)/CXCL10” value ([6]; 2.2 μM) was −0.09 log10. The “Significant log10 reduction … (IP-10)/CXCL10” value ([6]; 6.7 μM) was −0.10 log10, the “Significant log10 reduction compared to nontreated controls: Alpha smooth muscle actin (αSMA)” value (“Significant log10 reduction … (αSMA)” below) (Lung fibroblasts; 0.7 μM) was −0.16 log10 and the “Significant log10 reduction … (αSMA)” value (Lung fibroblasts; 2.2 μM) was −0.18 log10. For the same compound, the “Significant log10 reduction … (αSMA)” value (Lung fibroblasts; 6.7 μM) was −0.26 log10, the “Significant log10 reduction compared to nontreated controls: Monocyte chemoattractant protein 1 (MCP-1)” value ([7]; 2.2 μM) was −0.17 log10 and the “Significant log10 reduction compared to nontreated controls: Monocyte chemoattractant protein 1 (MCP-1)” value ([7]; 6.7 μM) was −0.25 log10. The “Significant log10 reduction compared to nontreated controls: Secreted interleukin 10 (IL-10)” value ([7]; 6.7 μM) was −0.13 log10.
